# From BindingDB's records for doi:10.1021/acs.jmedchem.6b00993 (Purdue University, 2016)
# Target: Serine/threonine-protein phosphatase 5 (Homo sapiens) (UniProt P53041)
# Assay: Inhibition of His-tagged PP5 (unknown origin) expressed in Escherichia coli BL21 cells using para-nitrophenyl phosphate as substrate incubated for 5 to 10 mins by microplate reader based spectrophotometric analysis
# Chain of Serine/threonine-protein phosphatase 5 (Homo sapiens) (P53041 whole entry, looked up): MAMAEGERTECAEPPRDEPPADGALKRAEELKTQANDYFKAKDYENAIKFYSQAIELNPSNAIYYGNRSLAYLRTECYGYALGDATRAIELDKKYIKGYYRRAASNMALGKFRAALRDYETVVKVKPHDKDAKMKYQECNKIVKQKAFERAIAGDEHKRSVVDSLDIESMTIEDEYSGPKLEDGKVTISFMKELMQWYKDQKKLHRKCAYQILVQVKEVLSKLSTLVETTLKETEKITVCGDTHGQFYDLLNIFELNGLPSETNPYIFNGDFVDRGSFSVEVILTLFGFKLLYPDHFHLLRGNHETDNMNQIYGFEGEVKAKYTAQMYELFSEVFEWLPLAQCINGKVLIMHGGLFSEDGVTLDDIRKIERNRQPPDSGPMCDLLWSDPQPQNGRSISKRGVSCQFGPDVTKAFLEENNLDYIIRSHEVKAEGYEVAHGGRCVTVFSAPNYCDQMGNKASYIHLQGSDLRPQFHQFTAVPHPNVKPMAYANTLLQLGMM
row,IC50 [µM],SMILES
1,> 200,O=C(Nc1ccc(N2CCOCC2)cc1)C(c1ccccc1)S(=O)(=O)O (centres undefined)
2,> 200,O=C(Nc1nc2ccccc2s1)C(c1ccccc1)S(=O)(=O)O (centres undefined)
3,> 200,O=C(Nc1cnc2ccccc2c1)C(c1ccccc1)S(=O)(=O)O (centres undefined)
4,> 200,O=C(Nc1ccc2nc(C(F)(F)F)[nH]c2c1)C(c1ccccc1)S(=O)(=O)O (centres undefined)
